Holding throughout (assay type): functional, cell-based
One assay has as its system MDA-MB-231. Put plainly: Antiproliferative activity against human MDA-MB-231 cells assessed as reduction in cell viability after 72 hrs by SRB assay. As to conditions: MDA-MB-231, 72 h. For orientation: Sulforhodamine B stains cellular protein and so reports cell mass.
The subject of another assay is KB. Kind of assay: Antiproliferative activity against human KB cells assessed as reduction in cell viability after 72 hrs by SRB assay.
The next assay concerns MCF7. Put plainly: Antiproliferative activity against human MCF7 cells assessed as reduction in cell viability after 72 hrs by SRB assay. As to conditions: MCF7, 72 h.
Assay [1] can be described thus: Antiproliferative activity against human KB-VIN cells assessed as reduction in cell viability after 72 hrs by SRB assay. The conditions noted are these: KBVIN.
The test system of the next assay is A549. Put plainly: Antiproliferative activity against human A549 cells assessed as reduction in cell viability after 72 hrs by SRB assay. As to conditions: A549, 72 h.

Usually IC50 stands for the midpoint of a concentration-inhibition curve.

Each structure is given as a SMILES string. Bounds are passed on as bounds.

For `O=C(/C=C/c1ccc(Cl)cc1)c1csc2ccccc12`, the half-inhibitory concentration (IC50) in the assay with MDA-MB-231 is 7.3 µM; in the assay with KB, 8.1 µM; in the assay with MCF7 it was 9.7 µM; in assay [1] it was 5.5 µM; in the assay on A549, 6.6 µM.

For `O=C1/C(=C/c2ccccc2)Oc2ccccc21` [(Z)-AURONE], the IC50 (with MDA-MB-231; in the assay with KB; with MCF7; in assay [1]; with A549) was more than 10 µM each time.

Regarding `COc1ccc(OC)c(C(=O)/C=C/c2csc3ccccc23)c1`, the IC50 in the assay on MDA-MB-231 came to 5.4 µM; with KB, 4.6 µM; in the assay on MCF7 it was 5.5 µM; in assay [1], 3.7 µM; in the assay with A549 it was 4.1 µM.

As to `O=C(/C=C/c1cc2ccccc2s1)c1cc(Cl)cc(Cl)c1O`, the IC50 in the assay on MDA-MB-231 was found to be 7.5 µM; with KB it was 7.8 µM; in the assay with MCF7, 9.9 µM; in assay [1] it was 5.8 µM; in the assay with A549, 6.9 µM.

Take `COc1c(OC(C)C)cc2c(c1OC(C)C)C(=O)/C(=C/c1csc3ccccc13)O2`: the IC50 (in the assay on MDA-MB-231; in the assay with KB; with MCF7; in assay [1]; in the assay with A549) was more than 10 µM throughout.

As for `COc1ccc(C(=O)/C=C/c2csc3ccccc23)c(O)c1`, the IC50 is 7.4 µM in the assay with MDA-MB-231; 5.6 µM in the assay on KB; 7.5 µM in the assay with MCF7; 4.8 µM in assay [1]; 5.6 µM in the assay with A549.

Turning to `O=C(/C=C/c1ccccc1)c1csc2ccccc12`, the IC50 in the assay on MDA-MB-231 was 6.7 µM; in the assay with KB, 6.3 µM; in the assay with MCF7 it was more than 10 µM; in assay [1], 5.8 µM; in the assay on A549, 9.1 µM.

Regarding `COc1c(OC(C)C)cc2occ(-c3ccccc3)c(=O)c2c1OC(C)C`, the IC50 (in the assay on MDA-MB-231; with KB; with MCF7; in assay [1]; with A549) was more than 10 µM each time.

Regarding `COc1c(O)cc2occ(-c3ccccc3)c(=O)c2c1O`, the IC50 (with MDA-MB-231; in the assay on KB; with MCF7; in assay [1]; in the assay on A549) was more than 10 µM each time.

For the molecule `COc1c(OC(C)C)cc2oc(-n3cncn3)c(-c3csc4ccccc34)c(=O)c2c1OC(C)C`, the IC50 is more than 10 µM in the assay with MDA-MB-231; more than 10 µM in the assay on KB; more than 10 µM in the assay with MCF7; 5 µM in assay [1]; more than 10 µM with A549.

Turning to `COc1c(OC(C)C)cc2occ(-c3csc4ccccc34)c(=O)c2c1O`, the IC50 in the assay with MDA-MB-231 is more than 10 µM; with KB it was more than 10 µM; with MCF7, more than 10 µM; in assay [1] it was more than 10 µM; with A549, 7.2 µM.

`COc1ccc(O)c(C(=O)/C=C/c2cc3ccccc3s2)c1`: the IC50 (with MDA-MB-231; in the assay with KB; in the assay on MCF7; in assay [1]; with A549) was more than 10 µM throughout.

As to `COc1cc(O)c(C(=O)/C=C/c2csc3ccccc23)c(OC)c1OC`, the IC50 was 6.9 µM with MDA-MB-231; 6.7 µM in the assay on KB; 7.7 µM in the assay on MCF7; 4.9 µM in assay [1]; 5.3 µM in the assay with A549.

Regarding `CCOc1cc2occ(-c3csc4ccccc34)c(=O)c2c(OCC)c1OC`, the concentration for half-maximal inhibition (IC50) came to 1 µM with MDA-MB-231; 4.2 µM with KB; 3.1 µM with MCF7; 0.67 µM in assay [1]; 2.6 µM with A549.

For `COc1ccc(/C=C/C(=O)c2csc3ccccc23)cc1OC`, the IC50 worked out at 6.6 µM in the assay with MDA-MB-231; 4.9 µM in the assay with KB; 9.4 µM in the assay on MCF7; 4.7 µM in assay [1]; 5.2 µM with A549.

As to `Cc1ccc(O)c(C(=O)/C=C/c2csc3ccccc23)c1`, the IC50 was determined as 6 µM with MDA-MB-231; 4.9 µM in the assay on KB; 7.8 µM in the assay with MCF7; 4.3 µM in assay [1]; 4.8 µM with A549.

Take `O=C(/C=C/c1csc2ccccc12)c1ccc2ccccc2c1O`: the IC50 in the assay on MDA-MB-231 was more than 10 µM; with KB it was more than 40 µM; in the assay on MCF7, more than 10 µM; in assay [1], 8.2 µM; in the assay with A549, 7.2 µM.

Consider `O=c1c(-c2ccccc2)coc2ccccc12` [ISOFLAVONE], for which the IC50 (with MDA-MB-231; with KB; in the assay with MCF7; in assay [1]; in the assay with A549) was more than 10 µM in each case.

As for `COc1c(O)cc2occ(-c3csc4ccccc34)c(=O)c2c1O`, the IC50 (in the assay with MDA-MB-231; in the assay with KB; with MCF7; in assay [1]; with A549) was more than 10 µM in each case.

Consider `O=C(/C=C/c1csc2ccccc12)c1cc(Br)ccc1O`, for which the IC50 in the assay on MDA-MB-231 amounted to 0.84 µM; in the assay on KB it was 0.76 µM; in the assay on MCF7 it was 1.04 µM; in assay [1], 0.47 µM; in the assay on A549, 0.66 µM.

With `COc1cc(O)c(C(=O)/C=C/c2csc3ccccc23)cc1OC`, the IC50 was 0.69 µM with MDA-MB-231; 0.52 µM in the assay on KB; 0.71 µM in the assay on MCF7; 0.27 µM in assay [1]; 0.45 µM with A549.

For `CCOc1ccc(O)c(C(=O)/C=C/c2csc3ccccc23)c1`, the IC50 in the assay on MDA-MB-231 was 6.7 µM; with KB, 5.8 µM; with MCF7, 7.5 µM; in assay [1] it was 4.1 µM; in the assay on A549, 5.4 µM.

For the molecule `O=C1/C(=C/c2csc3ccccc23)Oc2ccccc21`, the IC50 (in the assay on MDA-MB-231; in the assay on KB; in the assay on MCF7; in assay [1]; in the assay on A549) was more than 10 µM throughout.

Consider `CCOc1c(OC)cc2occ(-c3csc4ccccc34)c(=O)c2c1OC`, for which the IC50 is 5.2 µM with MDA-MB-231; 4 µM in the assay on KB; 4 µM with MCF7; 0.84 µM in assay [1]; 4.8 µM in the assay on A549.

With `O=C(/C=C/c1ccccc1)c1c(O)ccc2ccccc12`, the IC50 (in the assay on MDA-MB-231; with KB; in the assay on MCF7; in assay [1]; with A549) was more than 10 µM in each case.

On to `O=C(/C=C/c1csc2ccccc12)c1cc(Br)cc(Br)c1O`, for which the IC50 amounted to 4.3 µM in the assay with MDA-MB-231; 4.8 µM with KB; 5.8 µM in the assay on MCF7; 1 µM in assay [1]; 4.2 µM in the assay on A549.

On to `COc1c(OC(C)C)cc2oc(-n3cncn3)c(-c3ccccc3)c(=O)c2c1OC(C)C`, for which the IC50 (in the assay with MDA-MB-231; in the assay on KB; with MCF7; in assay [1]; with A549) was more than 10 µM each time.

Take `O=C(/C=C/c1csc2ccccc12)c1cc(Cl)cc(Cl)c1O`: the IC50 with MDA-MB-231 is 3.3 µM; with KB, 4.6 µM; with MCF7, 5.8 µM; in assay [1], 0.83 µM; with A549 it was 3.7 µM.

For the molecule `COc1c(OC(C)C)cc2occ(-c3ccccc3)c(=O)c2c1O`, the IC50 (in the assay with MDA-MB-231; with KB; in the assay with MCF7; in assay [1]; in the assay on A549) was more than 10 µM throughout.

For `COc1ccc(/C=C/C(=O)c2csc3ccccc23)cc1`, the IC50 with MDA-MB-231 is more than 10 µM; in the assay with KB, more than 10 µM; in the assay on MCF7, more than 10 µM; in assay [1], 8.1 µM; in the assay with A549, more than 10 µM.

Regarding `O=C(/C=C/c1ccccc1)c1cccc2ccccc12`, the IC50 came out at 6 µM with MDA-MB-231; 6.2 µM in the assay with KB; 9.8 µM in the assay on MCF7; 5.4 µM in assay [1]; 5 µM in the assay on A549.

In the case of `O=C(/C=C/c1csc2ccccc12)c1cccc(Cl)c1`, the IC50 (with MDA-MB-231; in the assay with KB; in the assay with MCF7; in assay [1]; in the assay with A549) was more than 10 µM in each case.

Turning to `O=C(/C=C/c1csc2ccccc12)c1cc2c(cc1O)OCO2`, the IC50 in the assay with MDA-MB-231 was 6.2 µM; in the assay with KB it was 5.1 µM; in the assay with MCF7, 6.9 µM; in assay [1], 2.1 µM; in the assay on A549, 4.8 µM.

On to `COc1cc2c(=O)c(-c3csc4ccccc34)coc2c(OC)c1OC`, for which the IC50 (in the assay with MDA-MB-231; with KB; in the assay with MCF7; in assay [1]; in the assay on A549) was more than 10 µM in each case.

Regarding `COc1ccc(O)c(/C=C/C(=O)c2csc3ccccc23)c1`, the IC50 in the assay with MDA-MB-231 came out at 5.4 µM; in the assay on KB, 5 µM; with MCF7 it was 5.9 µM; in assay [1] it was 4.4 µM; in the assay with A549, 4.7 µM.

For the molecule `O=C(/C=C/c1csc2ccccc12)c1cc(F)ccc1O`, the IC50 is 8.4 µM in the assay on MDA-MB-231; 7.4 µM in the assay on KB; more than 10 µM in the assay with MCF7; 5.4 µM in assay [1]; 7.1 µM in the assay on A549.

Take `COc1ccc(O)c(C(=O)/C=C/c2csc3ccccc23)c1`: the IC50 in the assay with MDA-MB-231 amounted to 0.76 µM; in the assay on KB it was 0.64 µM; in the assay on MCF7 it was 0.75 µM; in assay [1], 0.4 µM; with A549, 0.58 µM.

Turning to `CC(C)=CCc1cc(C(=O)/C=C/c2csc3ccccc23)c(O)cc1O`, the IC50 came to 8.9 µM with MDA-MB-231; 7.6 µM in the assay on KB; 7.4 µM in the assay with MCF7; 5.4 µM in assay [1]; 6 µM in the assay on A549.

On to `O=C(/C=C/c1cc2ccccc2s1)c1cc(Cl)ccc1O`, for which the IC50 (in the assay on MDA-MB-231; in the assay with KB; in the assay with MCF7; in assay [1]; in the assay on A549) was more than 10 µM throughout.

The values are drawn from ChEMBL document CHEMBL5038649, “Chemical Space Expansion of Flavonoids: Induction of Mitotic Inhibition by Replacing Ring B with a 10π-Electron System, Benzo[b]thiophene” (J Nat Prod, 2022).
